Data taken from patent US11291643B2, “Methods of treating hypertriglyceridemia” (Amarin Pharmaceuticals Ireland Limited, priority 2011, dated 2022).

Tested on: patients with fasting triglyceride levels ≥500 mg/dL
Assay: Lipoprotein particle concentration by NMR spectroscopy in the clinical study
Type: in vivo, human
Conditions: for IDL particle concentration, median change from baseline / Large HDL particle concentration, median change from baseline / Large LDL particle concentration, median change from baseline / Large VLDL particle concentration, median change from baseline / Medium HDL particle concentration, median change from baseline / Medium VLDL particle concentration, median change from baseline / Small HDL particle concentration, median change from baseline / Small LDL particle concentration, median change from baseline / Small VLDL particle concentration, median change from baseline / Total HDL particle concentration, median change from baseline / Total LDL particle concentration, median change from baseline / Total VLDL particle concentration, median change from baseline: baseline to study end; for IDL particle concentration, end-of-treatment value (median) / Large HDL particle concentration, end-of-treatment value (median) / Large LDL particle concentration, end-of-treatment value (median) / Large VLDL particle concentration, end-of-treatment value (median) / Medium HDL particle concentration, end-of-treatment value (median) / Medium VLDL particle concentration, end-of-treatment value (median) / Small HDL particle concentration, end-of-treatment value (median) / Small LDL particle concentration, end-of-treatment value (median) / Small VLDL particle concentration, end-of-treatment value (median) / Total HDL particle concentration, end-of-treatment value (median) / Total LDL particle concentration, end-of-treatment value (median) / Total VLDL particle concentration, end-of-treatment value (median): study end
Procedure: Lipoprotein particle concentrations and sizes were measured with nuclear magnetic resonance spectroscopy in the above described clinical trial. Lipoprotein particle size and concentration parameters were obtained from fasting blood samples. Lipoprotein particle size and concentrations are measured by nuclear magnetic resonance (NMR) spectroscopy at LipoScience, Inc. (Raleigh, N.C.) using the LipoProfile-3 algorithm. VLDL, LDL, and HDL subclasses of different size were quantified from the amplitudes of their spectroscopically-distinct lipid methyl group NMR signals.
Concentrations of the following subclasses of lipoproteins were analyzed in this study: small LDL (18.0-20.5 nm), large LDL (20.5-23.0 nm), intermediate-density lipoprotein (IDL; 23.0-29.0 nm), large high-density lipoprotein (HDL; 9.4-14.0 nm), medium HDL (8.2-9.4 nm), small HDL (7.3-8.2 nm), large very-low-density lipoprotein (VLDL; >60 nm), medium VLDL (42-60 nm), and small VLDL (29-42 nm).
Subjects with missing baseline or Week 12 measurements, due to either missing laboratory samples or un-reportable values, were excluded from this analysis. The median difference of each lipoprotein particle variable (percent change from baseline) between each AMR101 treatment group and the placebo group was evaluated with a nonparametric test using the Hodges-Lehmann medians of the differences between treatment groups and the Wilcoxon rank-sum test (significance level 0.05). All statistical analyses were carried out using SAS 9.2 software.

[1] = 2 g/day vs placebo, Hodges-Lehmann median
[2] = 4 g/day vs placebo, Hodges-Lehmann median
[3] = 4 g/day vs placebo, stated as reduction

Compound: CC/C=C\C/C=C\C/C=C\C/C=C\C/C=C\CCCC(=O)OCC [AMR101, ethyl eicosapentaenoate]
- Small LDL particle concentration, placebo-adjusted median percent change from baseline [1]: −12.8%
- Total HDL particle concentration, placebo-adjusted median percent change from baseline [1]: −3.0%
- Total LDL particle concentration, placebo-adjusted median percent change from baseline [1]: −1.1%
- Reduction of small LDL particle concentration (2 g/day vs placebo, stated as reduction): 12.8%
- IDL particle concentration, median change from baseline (2 g/day, n = 63): 0.8%
- Large HDL particle concentration, median change from baseline (2 g/day, n = 63): −1.6%
- Large LDL particle concentration, median change from baseline (2 g/day, n = 63): −20.9%
- Large VLDL particle concentration, median change from baseline (2 g/day, n = 63): −2.5%
- Medium HDL particle concentration, median change from baseline (2 g/day, n = 63): 3.9%
- Medium VLDL particle concentration, median change from baseline (2 g/day, n = 63): 18.8%
- Small HDL particle concentration, median change from baseline (2 g/day, n = 63): −3.2%
- Small LDL particle concentration, median change from baseline (2 g/day, n = 63): 9.5%
- Small VLDL particle concentration, median change from baseline (2 g/day, n = 63): 11.5%
- Total HDL particle concentration, median change from baseline (2 g/day, n = 63): −3.3%
- Total LDL particle concentration, median change from baseline (2 g/day, n = 63): 12.6%
- Total VLDL particle concentration, median change from baseline (2 g/day, n = 63): 13.1%
- IDL particle concentration, end-of-treatment value (median) (2 g/day, n = 63): 144.0 nmol/L
- Large HDL particle concentration, end-of-treatment value (median) (2 g/day, n = 63): 2.3 µmol/L
- Large LDL particle concentration, end-of-treatment value (median) (2 g/day, n = 63): 51.0 nmol/L
- Large VLDL particle concentration, end-of-treatment value (median) (2 g/day, n = 63): 29.9 nmol/L
- Medium HDL particle concentration, end-of-treatment value (median) (2 g/day, n = 63): 8.7 µmol/L
- Medium VLDL particle concentration, end-of-treatment value (median) (2 g/day, n = 63): 93.8 nmol/L
- Small HDL particle concentration, end-of-treatment value (median) (2 g/day, n = 63): 21.5 µmol/L
- Small LDL particle concentration, end-of-treatment value (median) (2 g/day, n = 63): 1100 nmol/L
- Small VLDL particle concentration, end-of-treatment value (median) (2 g/day, n = 63): 53.9 nmol/L
- Total HDL particle concentration, end-of-treatment value (median) (2 g/day, n = 63): 33.4 µmol/L
- Total LDL particle concentration, end-of-treatment value (median) (2 g/day, n = 63): 1464 nmol/L
- Total VLDL particle concentration, end-of-treatment value (median) (2 g/day, n = 63): 190.1 nmol/L
- Large VLDL particle concentration, placebo-adjusted median percent change from baseline [2]: −27.9%
- Small LDL particle concentration, placebo-adjusted median percent change from baseline [2]: −25.6%
- Small VLDL particle concentration, placebo-adjusted median percent change from baseline [2]: 5.3%
- Total HDL particle concentration, placebo-adjusted median percent change from baseline [2]: −7.4%
- Total LDL particle concentration, placebo-adjusted median percent change from baseline [2]: −16.3%
- Reduction of small LDL particle concentration [3]: 25.6%
- Reduction of total LDL particle concentration (IDL, small LDL and large LDL particles) [3]: 16.3%
- IDL particle concentration, median change from baseline (4 g/day, n = 61): 19.2%
- Large HDL particle concentration, median change from baseline (4 g/day, n = 61): 8.3%
- Large LDL particle concentration, median change from baseline (4 g/day, n = 61): −32.3%
- Large VLDL particle concentration, median change from baseline (4 g/day, n = 61): −24.5%
- Medium HDL particle concentration, median change from baseline (4 g/day, n = 61): −18.3%
- Medium VLDL particle concentration, median change from baseline (4 g/day, n = 61): 36.4%
- Small HDL particle concentration, median change from baseline (4 g/day, n = 61): −5.1%
- Small LDL particle concentration, median change from baseline (4 g/day, n = 61): −9.7%
- Small VLDL particle concentration, median change from baseline (4 g/day, n = 61): 4.3%
- Total HDL particle concentration, median change from baseline (4 g/day, n = 61): −7.1%
- Total LDL particle concentration, median change from baseline (4 g/day, n = 61): −0.1%
- Total VLDL particle concentration, median change from baseline (4 g/day, n = 61): 15.2%
- IDL particle concentration, end-of-treatment value (median) (4 g/day, n = 61): 185.0 nmol/L
- Large HDL particle concentration, end-of-treatment value (median) (4 g/day, n = 61): 2.3 µmol/L
- Large LDL particle concentration, end-of-treatment value (median) (4 g/day, n = 61): 64.0 nmol/L
- Large VLDL particle concentration, end-of-treatment value (median) (4 g/day, n = 61): 21.2 nmol/L
- Medium HDL particle concentration, end-of-treatment value (median) (4 g/day, n = 61): 8.4 µmol/L
- Medium VLDL particle concentration, end-of-treatment value (median) (4 g/day, n = 61): 106.8 nmol/L
- Small HDL particle concentration, end-of-treatment value (median) (4 g/day, n = 61): 21.6 µmol/L
- Small LDL particle concentration, end-of-treatment value (median) (4 g/day, n = 61): 998.0 nmol/L
- Small VLDL particle concentration, end-of-treatment value (median) (4 g/day, n = 61): 52.5 nmol/L
- Total HDL particle concentration, end-of-treatment value (median) (4 g/day, n = 61): 30.8 µmol/L
- Total LDL particle concentration, end-of-treatment value (median) (4 g/day, n = 61): 1419 nmol/L
- Total VLDL particle concentration, end-of-treatment value (median) (4 g/day, n = 61): 200.3 nmol/L
